Measured values: patent US7354571B2, “Photoprotective compositions comprising methyltrialkylsilanes containing a cinnamate, cinnamamide, benzalmalonamide or benzalmalonate function” (L'Oreal, priority 2003, dated 2008)

Test: UV absorption in ethanol
Assay type: physicochemical
Details: for E1% / εmax: at λmax

SMILES	λmax	E1%	εmax	E1% (listed as Example 2)	εmax (listed as Example 2)
CC1(C)OC(=O)C(=Cc2ccc(OC[Si](C)(C)C)cc2)C(=O)O1 [Example 6, 2,2-dimethyl-5-[4-(trimethylsilanylmethoxy)benzylidene]-1,3-dioxane-4,6-dione]	λmax = 370 nm,	E1% = 756.	εmax = 25 230,		
CCOC(=O)C(=Cc1ccc(OC[Si](C)(C)C)cc1)C(=O)OCC [Example 3, diethyl 2-(4-trimethylsilanylmethoxy)benzylidenemalonate]	λmax = 316 nm,	E1% = 750.	εmax = 26 290,		
CC(C)COC(=O)C(=Cc1ccc(OC[Si](C)(C)C)cc1)C(=O)OCC(C)C [Example 4, diisobutyl 2-(4-trimethylsilanylmethoxy)benzylidenemalonate]	λmax = 316 nm,	E1% = 663.	εmax = 26 960,		
CC(C)(C)COC(=O)C(=Cc1ccc(OC[Si](C)(C)C)cc1)C(=O)OCC(C)(C)C [Example 5, dineopentyl 2-(4-trimethylsilanylmethoxy)benzylidenemalonate]	λmax = 317 nm,	E1% = 592.	εmax = 25 730,		
CC(C)OC(=O)/C=C/c1ccc(OC[Si](C)(C)C)cc1 [Example 11, isopropyl 2-(4-trimethylsilanylmethoxy)cinnamate]	λmax = 310 nm,	E1% = 711.	εmax = 20 800,		
C[Si](C)(C)COc1ccc(C=C(C(N)=O)C(N)=O)cc1 [Example 10, 2-[4-(trimethylsilanylmethoxy)benzylidene]malonamide]	λmax = 310 nm,	E1% = 696.	εmax = 20 350,		
COC(=O)C(=Cc1ccc(OC[Si](C)(C)C)cc1)C(=O)OC [Example 1, dimethyl 2-(4-trimethylsilanylmethoxy)benzylidenemalonate]	λmax = 317 nm,	E1% = 840.	εmax = 27 085,	E1% = 820.	εmax = 26 440,
COc1ccc(C=C(C(=O)OC[Si](C)(C)C)C(=O)OC[Si](C)(C)C)cc1 [Example 13, di(methyltrimethylsilanyl) 2-(4-methoxybenzylidene)malonate]	λmax = 313 nm,	E1% = 653.	εmax = 25 770,		
CCCCC(CC)COC(=O)C(=Cc1ccc(OC[Si](C)(C)C)c(OC)c1)C(=O)OCC(CC)CCCC (centres unmarked) [Example 7, bis(2-ethylhexyl) 2-[3-methoxy-4-(trimethylsilanylmethoxy)benzylidene]malonate]	λmax = 331 nm,	E1% = 331.	εmax = 18 170,		
COC(=O)C(=Cc1ccc(OC[Si](C)(C)COc2ccc(C=C(C(=O)OC)C(=O)OC)cc2)cc1)C(=O)OC [Example 9, dimethyl 2-(4-{[({4-[3-methoxy-2-(methoxycarbonyl)-3-oxoprop-1-enyl]phenoxy}methyl)(dimethyl)silyl]methoxy}benzylidene)malonate]	λmax = 316 nm,	E1% = 903.	εmax = 50 270,		
